Where “and” joins values, the source holds several entries; their conditions need not be identical. Identical values can stand only once. Like-named read-outs stand apart in the source and are kept apart here.
What was measured:
[1] = Determination of the brain-to-plasma ratio after intraperitoneal administration (plasma and brain homogenate levels by LC-MS/MS); format: in vivo, male CD-1 mice; parameters: Brain Tissue Homogen. Conc / Brain Tissue Conc: unit not given here
Description: (§1) In this study, the brain-to-plasma ratio of Compound 2 and Compound 3 was evaluated after intraperitoneal dosing in fasted male CD-1 mice. Test compounds were dosed at 50 mg/kg in sterile water for injection. Plasma and brain homogenate levels were determined at 1 and 3 hours post dose by LC-MS/MS.
The dosing solution was diluted in triplicate into mouse plasma and analyzed in parallel with the study samples. The nominal dosing solution concentration was used in all calculations. All concentrations are expressed as […] of the free drug. All data are expressed as ng/mL (equivalent to ng/g for calculation of brain:plasma ratio) of the free drug. Samples that were below the limit of quantitation were not used in the calculation of averages.
Brain-to-plasma ratios were determined by dividing the brain concentration in ng/g by the plasma concentration in ng/g.
Brain samples were homogenizcd with a Virsonic 100 ultrasonic homogenizer. Each brain sample was first weighed, and then an appropriate volume of 20:80 methanol:water was added to make a 4 mL/1 gram sample. Samples were then homogenized on ice, and stored frozen until analysis.
Standards samples were prepared in either CD-1 Mouse plasma containing K2EDTA as an anticoagulant or CD-1 mouse brain homogenate. Working solutions (200 μg/mL and/or 20 μg/mL for each test compound) was prepared in 50:50 ACN:water. Then, a nine-point calibration curve was prepared at concentrations of 2000, 1500, 1000, 500, 100, 50, 20, 10, and 5 ng/mL of each test compound by serial dilution; or for a high-sensitivity method, another nine point calibration curve was prepared at concentrations of 200, 150, 100, 50, 10, 5, 2, 1, and 0.5 ng/mL of each test compound by serial dilution. Standard samples were treated identically to the study samples.
Plasma and brain homogenate samples were extracted via acetonitrile precipitation on a Tomtec Quadra 96-Model 320 liquid handling system in a 96-well plate format.

[2] = Observations and adverse reactions after intraperitoneal administration; format: in vivo, CD-1 mice; conditions: IP 50 mg/kg in sterile water for injection
Description: as §1

[3] = IP 50 mg/kg, 1.0 hr post dose, individual mouse, 50 mg/kg
[4] = IP 50 mg/kg, 3.0 hr post dose, individual mouse, 50 mg/kg
[5] = male, CD-1, mouse, brain/plasma, ip, 50 mg/kg, 1 hour post dose, mean of mice, read-out: Average B:P Ratio

Structure (SMILES)	B:P Ratio [1, 3]	Brain Tissue Conc [1, 3]	Plasma Conc [1, 3]	Brain Tissue Homogen. Conc ([1]; IP 50 mg/kg, 3.0 hr post dose, individual mouse)	Plasma Conc [1, 4]	concentration at 3 h ([1]; male, CD-1, mouse, brain, ip, 50 mg/kg, 3 hours post dose, read-out: brain tissue concentrations (BLOQ)) [ng/mL]	Kp at 1 h [1, 5]	adverse effects after intraperitoneal administration [2]	Average B:P Ratio ([1]; IP 50 mg/kg, 1 hour post dose, mean of mice, 50 mg/kg)	B:P Ratio ([1]; IP 50 mg/kg, 1.0 hr post dose, individual mouse)	Average B:P Ratio ([1]; IP 50 mg/kg, 3 hours post dose, mean of mice, 50 mg/kg)	B:P Ratio [1, 4]	Kp at 1 h ([1]; male, CD-1, mouse, brain/plasma, ip, 50 mg/kg, 1.0 hr post dose, individual mouse, read-out: B:P Ratio)	Kp at 3 h ([1]; male, CD-1, mouse, brain/plasma, ip, 50 mg/kg, 3 hours post dose, mean of mice, read-out: Average B:P Ratio)	concentration at 1 h ([1]; male, CD-1, mouse, plasma, ip, 50 mg/kg, 1.0 hr post dose, individual mouse, read-out: Plasma Conc) [ng/mL]
COCCNC(=O)c1cc(C(=O)NCCOC)cc(C(=O)NCCOC)c1 [Compound 2, N^1,N^3,N^5-tris(2-methoxyethyl)benzene-1,3,5-tricarboxamide]	0.01 and 0.1	4.19	675 ng/mL and 30.7 ng/mL and 41.8 ng/mL	BLQ	3.13 ng/mL and 2.22 ng/mL and 16.5 ng/mL	< 0.5	0.056	No adverse effects were observed							
COCCN(C)C(=O)c1cc(C(=O)N(C)CCOC)cc(C(=O)N(C)CCOC)c1 [Compound 3, N^1,N^3,N^5-tris(2-methoxyethyl)-N^1,N^3,N^5-trimethylbenzene-1,3,5-tricarboxamide]			3010 ng/mL and 2440 ng/mL		17.2 ng/mL and 36 ng/mL and 71.7 ng/mL		0.038 ± 0.004	No adverse effects were observed	0.038	0.04	0.525	0.78 and 0.24 and 0.55	0.04	0.525 ± 0.275	2770

— US9828332B2, “Non-peptide BDNF neurotrophin mimetics” (PHARMATROPHIX, INC., priority 2013, dated 2017)
